Test results taken from patent US20080200682A1, “Process of Producing Bleach Boosters” (BASF Aktiengesellschaft, priority 2005, published 2008).
Structures can show the parent of a compound that is named as a salt.

Columns and labels:
Type in all cases: biochemical
[1] = tested on: Natalase (amylase enzyme); assay: Organic Catalyst/Enzyme Compatibility Test (alpha amylase activity assay), Natalase; details: (Ac/Ab)x100 for Natalase; [Peracetic Acid]=5.0 ppm; [organic catalyst]=0.5 ppm; detergent solution, 40° C.
[2] = target: T1, Termamyl (amylase enzyme) (Bacillus licheniformis, UniProt P06278)
T1 construct: purchased Novozymes, Denmark

[3] = tested on: Duramyl (amylase enzyme); assay: Organic Catalyst/Enzyme Compatibility Test (alpha amylase activity assay), Duramyl; details: (Ac/Ab)x100 for Duramyl; [Peracetic Acid]=5.0 ppm; [organic catalyst]=0.5 ppm; detergent solution, 40° C.
[4] = tested on: Amylase enzymes: Termamyl, Natalase, and Duramyl; assay: Organic Catalyst/Enzyme Compatibility Test, average ECV of the three enzymes; details: ECV=(ECVter+ECVdur+ECVnat)/3; [Peracetic Acid]=5.0 ppm; [organic catalyst]=0.5 ppm

T1 sequence (P06278 30-512): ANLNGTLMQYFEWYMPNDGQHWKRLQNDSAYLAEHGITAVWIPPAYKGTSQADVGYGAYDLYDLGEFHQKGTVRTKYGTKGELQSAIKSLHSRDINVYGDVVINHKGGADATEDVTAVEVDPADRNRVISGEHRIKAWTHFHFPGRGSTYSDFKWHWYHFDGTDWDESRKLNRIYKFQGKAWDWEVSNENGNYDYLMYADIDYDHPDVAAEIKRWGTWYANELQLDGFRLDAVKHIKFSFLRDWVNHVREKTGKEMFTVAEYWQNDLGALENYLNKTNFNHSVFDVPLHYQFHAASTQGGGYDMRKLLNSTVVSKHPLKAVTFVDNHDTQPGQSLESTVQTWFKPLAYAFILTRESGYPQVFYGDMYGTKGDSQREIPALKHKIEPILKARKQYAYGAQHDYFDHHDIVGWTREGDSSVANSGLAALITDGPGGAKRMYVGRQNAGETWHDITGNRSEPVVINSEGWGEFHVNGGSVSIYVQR

| Compound | Enzyme Compatibility Values ECVnat [1] | Enzyme Compatibility Values ECVter [2] | Enzyme Compatibility Values ECVdur [3] | Enzyme Compatibility Values ECV [4] |
| --- | --- | --- | --- | --- |
| CCCCC(CC)COCC(C[N+]1=Cc2ccccc2CC1)OS(=O)(=O)[O-] (stereo not drawn) [Entry 2, reference compound] | 57 | 54 | 90 | 67 |
| CCCCCC(CCC)COCC(C[N+]1=Cc2ccccc2CC1)OS(=O)(=O)[O-] (stereo not drawn) [Entry 3, Sulfuric acid mono-[2-(3,4-dihydro-isoquinolin-2-yl)-1-(2-propylheptyloxymethyl)-ethyl]ester, internal salt] | 99 | 98 | 101 | 99 |
| CCCCCCC(CCCC)COCC(C[N+]1=Cc2ccccc2CC1)OS(=O)(=O)[O-] (stereo not drawn) [Entry 4, Sulfuric acid mono-[2-(3,4-dihydro-isoquinolin-2-yl)-1-(2-butyl-octyloxymethyl)-ethyl]ester, internal salt] | 102 | 101 | 101 | 101 |
| Sulfuric acid mono-[2-(3,4-dihydro-isoquinolin-2-yl)-1-(iso-decyloxymethyl)-ethyl]ester, internal salt [Entry 7] | 96 | 98 | 97 | 97 |
| Sulfuric acid mono-[2-(3,4-dihydro-isoquinolin-2-yl)-1-(iso-nonyloxymethyl)-ethyl]ester, internal salt [Entry 6] | 88 | 86 | 96 | 90 |
| Sulfuric acid mono-[2-(3,4-dihydro-isoquinolin-2-yl)-1-(iso-tridecyloxymethyl)-ethyl]ester, internal salt [Entry 8] | 101 | 99 | 100 | 100 |
